Non-standard residues stand in square brackets, D forms with d. Residues, ends and D or L forms follow the SMILES beside them. *: point of attachment. Dolaproine = CO[C@@H]([C@@H]1CCCN1)[C@@H](C)C(=O)O; Dil = CC[C@H](C)[C@H](NC)[C@@H](CC(=O)O)OC; X1 = C[C@@H](N*)[C@@H](O)c1ccccc1; NMeV = CN[C@H](C(=O)O)C(C)C
Key:
[1] = system: A549 lung cancer cell line-injected mice; assay: In vivo therapeutic efficacy on A549 lung cancer cell line-injected mice (FDG PET, tumor size); parameters: species or system nude mouse; details: i.v. 4 times by 5 day intervals, conjugate 7.5 mg/kg (0.5 mg/kg of MMAE) or MMAE 0.5 mg/kg, 30 days after start of treatment
Procedure: To A549 lung cancer cell line-injected mice, MMAE-(PAB-Cit-Val-MC-S-C6)-T3-AS1411 and MMAE, respectively, were administered by IV injection for 30 days, followed by identifying tumor sizes through PET images. A549 lung cancer cells in a number of 6.1×10^6 cells/ml were injected subcutaneously in the right thigh of each nude mouse. The tumor size was measured in 3 to 4 weeks after the injection and, when a diameter of the tumor reached 0.8 cm, microPET images were captured before treatment. For PET images, F-18 FDG 0.2 mCi was i.p. injected and then the images were captured (Siemens Inveon). After detection of FDG intake in the tumor from the images, MMAE-(PAB-Cit-Val-MC-S-C6)-T3-AS1411 was i.v. injected in an experimental group of 5 mice 4 times by 5 day intervals (7.5 mg/kg, 0.5 mg/kg of MMAE). […]
To A549 lung cancer cell-injected mice, MMAE was administered by IV injection for 30 days, followed by observation of PET images. […] The tumor size was measured in 3 to 4 weeks after the injection and, when a diameter of the tumor reached 0.8 cm, microPET images were captured before treatment. […]
As compared to administration of MMAE alone, it was determined that MMAE-(PAB-Cit-Val-MC-S-C6)-T3-AS1411 inhibits 80% more cancer. After the start of treatment, sizes of tumors were measured in both of horizontal and vertical axes by 5 day intervals. […]

[2] = system: Mv4-11 AML cell line-injected mice; assay: In vivo therapeutic efficacy on Mv4-11 AML cell line-injected mice (FDG PET); parameters: species or system nude mouse; details: Mv4-11 AML tumor, i.v. 4 times by 5 day intervals, conjugate 7.5 mg/kg or MMAE 0.5 mg/kg, 30 days after start of treatment
Procedure: To Mv4-11 AML cell line-injected mice, citravin-(GLFG-MC-S-C6)-T3-AS1411 and MMAE, respectively, were administered by IV injection for 30 days, followed by identifying tumor sizes through PET images. Mv4-11 AML cells in a number of 6.1×10^6 cells/ml were injected subcutaneously in the right thigh of each nude mouse. The tumor size was measured in 3 to 4 weeks after the injection and, when a diameter of the tumor reached 0.8 cm, microPET images were captured before treatment. For PET images, F-18 FDG 0.2 mCi was i.p. injected and then the images were captured (Siemens Inveon). After detection of FDG intake in the tumor from the images, citravin-(GLFG-MC-S-C6)-T3-AS1411 was i.v. injected in an experimental group of 5 mice 4 times by 5 day intervals (7.5 mg/kg, 0.5 mg/kg of MMAE). After 30 days from the start of treatment, microPET images were captured by the same method as used before treatment (FIG. 13 and FIG. 14).
To Mv4-11 AML cell line-injected mice, MMAE was administered by IV injection for 30 days, followed by observation of PET images. Mv4-11 AML cells in the number of 6.1×10^6 cells/ml were injected subcutaneously in the right thigh of each nude mouse. The tumor size was measured in 3 to 4 weeks after the injection and, when a diameter of the tumor reached 0.8 cm, microPET images were captured before treatment. […]

[3] = reported by the Weihong Tang group, University of Florida; cited from earlier work
Mv4-11 cell line = assay: MTT assay to Mv4-11 cell lines; type: cell-based; details: Mv4-11 cells, 72 hours incubation, absorbance at 490 nm, FIG. 6
Procedure: With regard to Mv4-11 cell line as a […] over-expressing a nucleoline protein, cell inhibition efficacy of citravin-(GLFG-MC-S-C6)-T3-AS1411 was verified in vitro by MTT assay. […] Mv4-11 cells (ATCC, IMDM+10% FBS) were seeded on a 96-well plate in a cell number of 2.5 to 5×10^5 cells/well, which was determined by a cell test method to determine an appropriate cell concentration, followed by growing for 1 day. After heating each of citravin-(GLFG-MC-S-C6)-T3-AS1411 and citravin-(GLFG-MC-S-C6)-T3-CRO at 95° C. for 5 minutes, the heated product was gradually cooled at room temperature and directly treated on each well at different concentrations. After incubating the treated A549 cells in 5% CO2 incubator for 72 hours, the incubated product was treated with 20 μL of a reagent solution for MTT assay (Cell Proliferation kit II, Roche) and incubated for different periods of time (10 min, 30 min, 1 hr). Thereafter, the final product was subjected to measurement of absorbance at 490 nm by an ELISA reader (FIG. 6).

A549 cell line = assay: MTT assay to A549 cell lines; type: cell-based; details: A549 cells, 72 hours incubation, FIG. 17 and FIG. 18
Procedure: With regard to A549 cell line as a lung cancer cell line over-expressing a nucleoline protein, cell inhibition efficacy of MMAE-(PAB-Cit-Val-MC-S-C6)-T3-AS1411 was verified in vitro by MTT assay. […] A549 cells (ATCC, IMDM+10% FBS) were seeded on a 96-well plate in a cell number of 2.5 to 5×10^5 cells/well, which was determined by a cell test method to determine an appropriate cell concentration, followed by growing for 1 day. After heating each of MMAE-(PAB-Cit-Val-MC-S-C6)-T3-AS1411 and MMAE-(PAB-Cit-Val-MC-S-C6)-T3-CRO at 95° C. for 5 minutes, the heated product was gradually cooled at room temperature and directly treated on each well at different concentrations. […] Thereafter, the final product was subjected to measurement of absorbance at 490 nm by an ELISA reader (FIG. 5).
With regard to A549 cell line as a lung cancer cell line over-expressing a nucleoline protein, cell inhibition efficacies of MMAE-(PAB-Cit-Val-MC-S-C6)-T3-AS1411, 12 or 13-(MMAE-PAB-Cit-Val-MC-S-C6)-AS1411 and 12,13-(MMAE-PAB-Cit-Val-MC-S-C6)2-AS1411 were verified in vitro by MTT assay. […] A549 cells (ATCC, IMDM+10% FBS) were seeded on a 96-well plate in a cell number of 2.5 to 5×10^5 cells/well, which was determined by a cell test method to determine an appropriate cell concentration, followed by growing for 1 day. […]

With CC[C@H](C)[C@@H]([C@@H](CC(=O)N1CCC[C@H]1[C@H](OC)[C@@H](C)C(=O)N[C@H](C)[C@@H](O)c1ccccc1)OC)N(C)C(=O)[C@@H](NC(=O)[C@@H](NC)C(C)C)C(C)C [MMAE, monomethyl auristatin E, reference compound] (H-[NMeV]V[Dil][Dolaproine]-X1) the “FDG intake in the tumor from PET images, after vs before treatment” value (shortened to “FDG intake in the tumor … vs before treatment”) [1] was “FDG intake in the tumor was increased even after treatment” and the “FDG intake in the tumor … vs before treatment” value [2] was “FDG intake in the tumor was increased even after treatment”.
In the case of COc1cccc2c1C(=O)c1c(O)c3c(c(O)c1C2=O)C[C@@](O)(C(=O)CO)C[C@@H]3O[C@H]1C[C@H](N)[C@H](O)[C@H](C)O1 [doxorubicin], the cytotoxic effects [3] is listed as 20%.
In the case of “citravin-(Gly-Leu-Phe-Gly (SEQ ID NO: 8))-Mal-S-C6-tttggtggtggtggttgtggtggtggtgg [citravin-(GLFG-MC-S-C6)-T3-AS1411]”, the “FDG intake in the tumor … vs before treatment” value [2] was “a decrease in FDG intake in the tumor is observed” and the “cell inhibition efficacy (cell viability and cell proliferation) by MTT assay, compared with citravin” value (Mv4-11 cell line) was “almost the same efficacy as citravin”.
For “ggtggtggtggu (SEQ ID NO: 4)[5-N-(6-(3-monomethyl auristatin-p-aminobenzoyloxycarbonyl-citrulline-valine-Mal-thiopropanoyl)-aminohexyl)-3-acrylamido]u[5-N-(6-(3-monomethyl auristatin-p-aminobenzoyloxycarbonyl-citrulline-valine-Mal-thiopropanoyl)-aminohexyl)-3-acrylamido]gtggtggtggtgg (DNA GGTGGTGGTGGU; two MMAE-linker conjugates at positions 12,13, chemistry not fully specified) [12,13-(MMAE-PAB-Cit-Val-MC-S-C6)2-AS1411]”, the “cell inhibition efficacy by MTT assay, comparison between MMAE-linker-aptamer conjugates” value (A549 cell line) was “superior efficacy over of MMAE-(PAB-Cit-Val-MC-S-C6)-T3-AS1411”.

Source: patent US11458120B2, “Aptamer-drug conjugate and use thereof” (priority 2016, dated 2022)
